Test results taken from US4384118A, “4-(3-Iodopropargyloxy) pyrimidine derivatives” (SPOFA, spojene podniky pro zdravotnickou vyrobu, priority 1980, dated 1983).
Values after ≈ are worked out from the molar mass of the structure shown. Like-named read-outs stand apart in the source and are kept apart here. Each block holds one compound with its values, some of them ahead of it.

Columns and labels:
Type in all cases: cell-based
[1] = system: Trichophyton Mentagrophytes; test: Minimum inhibitory concentration vs Trichophyton Mentagrophytes; conditions: for activity against Trichophyton mentagrophytes compared with known antimycotic agents: comparison with best antimycotic agents previously known; for activity against Trichophyton mentagrophytes (in words): same range as the minimum inhibitory concentrations in Aspergillus niger, 0.3 to 0.7 μg/ml; for MIC: Table A, TM = Trichophyton Mentagrophytes, read-out: Minimum Inhibitory Concentrations
Source text: (§1) For comparative purposes, three of the compounds of formula (1) were compared with Clotrimazole and Haloprogine, well known prior art antimycotic compounds. Comparisons of minimum inhibitory concentration in μg/ml. were made with respect to four strains of […].

Trichophyton rubrum = test: Minimum inhibitory concentration vs Trichophyton rubrum; conditions: Table B
Description: (§2) Additionally, certain compounds of the invention were evaluated with respect to other mold species. Thus, for example, 2-ethylthio-4-(3 iodopropargyloxy) pyrimidine was evaluated with respect to the species identified in Table B, below and the noted minimum inhibitory cencentrations determined: […]

Microsporum Canis = test: Minimum inhibitory concentration vs Microsporum Canis; conditions: Table B
Description: as §2

Sporotrichum cejpii = test: Minimum inhibitory concentration vs Sporotrichum cejpii; conditions: Table B
Description: as §2

Microsporum gypseum = test: Minimum inhibitory concentration vs Microsporum gypseum; conditions: Nannizzia gypsea, Table B
Description: as §2

Trichophyton verrucosum = test: Minimum inhibitory concentration vs Trichophyton verrucosum; conditions: Table B
Description: as §2

Epidermophyton floccosum = test: Minimum inhibitory concentration vs Epidermophyton floccosum; conditions: Table B
Description: as §2

Keratinomyces ajelloi = test: Minimum inhibitory concentration vs Keratinomyces ajelloi; conditions: Table B
Description: as §2

[2] = system: Trichophyton schoenleinii; test: Minimum inhibitory concentration vs Trichophyton schoenleinii; conditions: Table B
Description: as §2

Aspergillus Niger = test: Minimum inhibitory concentration vs Aspergillus Niger
Source text: as §1

Sacharomyces Pastorianus = test: Minimum inhibitory concentration vs Sacharomyces Pastorianus; conditions: Table A, SP = Sacharomyces Pastorianus; read-out: Minimum Inhibitory Concentrations
Source text: as §1

Candida Alicans = test: Minimum inhibitory concentration vs Candida Alicans; conditions: Table A, CA = Candida Alicans; read-out: Minimum Inhibitory Concentrations
Source text: as §1

[3] = Aspergillus niger, read-out: minimum inhibitory concentration
[4] = Table A, AN = Aspergillus Niger, read-out: Minimum Inhibitory Concentrations

SMILES: COc1cnc(N)nc1OCC#CI [2-amino-5-methoxy-4-(3-iodopropargyloxy) pyrimidine]
activity against Trichophyton mentagrophytes compared with known antimycotic agents [1]: comparable with that of the best antimycotic agents previously known
activity against Trichophyton mentagrophytes (in words) [1]: lies in the same range

SMILES: CCSc1nccc(OCC#CI)n1 [2-ethylthio-4-(3 iodopropargyloxy) pyrimidine]
MIC (Trichophyton rubrum): 0.07 µg/mL (≈ 0.219 µM)
MIC (Microsporum Canis): 0.15 µg/mL (≈ 0.469 µM)
MIC (Sporotrichum cejpii): 0.3 µg/mL (≈ 0.937 µM)
MIC (Microsporum gypseum): 0.3 µg/mL (≈ 0.937 µM)
MIC (Trichophyton verrucosum): 0.15 µg/mL (≈ 0.469 µM)
MIC (Epidermophyton floccosum): 0.3 µg/mL (≈ 0.937 µM)
MIC (Keratinomyces ajelloi): 0.3 µg/mL (≈ 0.937 µM)
MIC [2]: 0.03 µg/mL (≈ 0.0937 µM)

SMILES: CCSc1ncc(OC)c(OCC#CI)n1 [2-ethylthio-5-methoxy-4-(3-iodopropargyloxy) pyrimidine]
MIC (Aspergillus Niger; [3]): 0.03 µg/mL (≈ 0.0857 µM)

SMILES: CSc1nccc(OCC#CI)n1 [2-methylthio-4-(3-iodopropargyloxy) pyrimidine]
activity against Trichophyton mentagrophytes compared with known antimycotic agents [1]: comparable with that of the best antimycotic agents previously known
activity against Trichophyton mentagrophytes (in words) [1]: lies in the same range

SMILES: CSc1ncc(Br)c(OCC#CI)n1 [2-methylthio-5-bromo-4-(3-iodopropargyloxy) pyrimidine]
MIC (Aspergillus Niger; [3]): 0.01 µg/mL (≈ 0.026 µM)

SMILES: COc1cnc(SC)nc1OCC#CI [2-methylthio-5-methoxy-4-(3-iodopropargyloxy) pyrimidine]
activity against Trichophyton mentagrophytes compared with known antimycotic agents [1]: comparable with that of the best antimycotic agents previously known
activity against Trichophyton mentagrophytes (in words) [1]: lies in the same range

SMILES: Clc1ccccc1C(c1ccccc1)(c1ccccc1)n1ccnc1 [Clotrimazole, reference compound]
MIC [1]: 0.03 µg/mL (≈ 0.087 µM)
MIC (Sacharomyces Pastorianus): 3.1 µg/mL (≈ 8.99 µM)
MIC (Aspergillus Niger; [4]): 3.1 µg/mL (≈ 8.99 µM)
MIC (Candida Alicans): 0.3 µg/mL (≈ 0.87 µM)

Results, then the compound that gave them:

MIC (Aspergillus Niger; [3]): 0.07 µg/mL (≈ 0.2 µM)
SMILES: CCOc1cnc(SC)nc1OCC#CI [2-methylthio-5-ethoxy-4-(3-iodopropargyloxy) pyrimidine]

MIC [1]: 0.07 µg/mL (≈ 0.192 µM)
MIC (Sacharomyces Pastorianus): 0.3 µg/mL (≈ 0.824 µM)
MIC (Aspergillus Niger; [4]): 0.01 µg/mL (≈ 0.0275 µM)
MIC (Candida Alicans): 3.1 µg/mL (≈ 8.51 µM)
SMILES: CCCSc1ncc(OC)c(OCC#CI)n1 [Compound I, 2 propylthio5-methoxy-4-(3 iodoprogargyloxy) pyrimidine]

MIC [1]: 0.07 µg/mL (≈ 0.211 µM)
MIC (Sacharomyces Pastorianus): 0.15 µg/mL (≈ 0.452 µM)
MIC (Aspergillus Niger; [4]): 0.3 µg/mL (≈ 0.903 µM)
MIC (Candida Alicans): 0.7 µg/mL (≈ 2.11 µM)
SMILES: C=CCSc1nccc(OCC#CI)n1 [Compound II, 2allylthio-4-(3-iodopropargyloxy) pyrimidine]

MIC [1]: 0.6 µg/mL (≈ 1.66 µM)
MIC (Candida Alicans): 1.2 µg/mL (≈ 3.32 µM)
SMILES: Clc1cc(Cl)c(OCC#CI)cc1Cl [Haloprogine, reference compound]
